Assay [1] addresses T1, human soluble TNFR1 (sTNFR1) (Homo sapiens, UniProt P19438).
T1 construct: made in house; host or cells: Sf21 (baculovirus)
T1 sequence (P19438 with tags, fused parts or gaps): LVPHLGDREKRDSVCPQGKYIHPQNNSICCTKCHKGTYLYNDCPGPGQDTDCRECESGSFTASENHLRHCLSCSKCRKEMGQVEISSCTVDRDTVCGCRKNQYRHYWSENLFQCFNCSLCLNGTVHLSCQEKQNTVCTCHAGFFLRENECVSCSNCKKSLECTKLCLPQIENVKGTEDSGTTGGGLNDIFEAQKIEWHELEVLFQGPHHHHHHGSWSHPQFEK
The assay is described as follows: Human sTNFR1-peptide displacement assay (LanthaScreen Eu TR-FRET binding assay). An outline of the steps: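 Readout is the 665/615 nm TR-FRET ratio (Eu anti-His donor, streptavidin-Alexa647 acceptor), normalized to DMSO and saturating displacer, fit by Morrison-based five-parameter logistic for Kd^app. His-tagged sTNFR1 (1-211) prebound to 100 nM biotinylated peptide SEQ ID NO.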
(In general: In TR-FRET formats the signal depends on donor and acceptor labels being close together.)

Assay [2] addresses T2, human TNFR1 extracellular domain (ECD) protein (Homo sapiens, UniProt P19438).
T2 construct: HRV 3C protease cleavage site (C); 6His (C, cleaved yes); made in house; host or cells: Sf21 insect cells (baculovirus), secreted
T2 sequence (P19438 30-211): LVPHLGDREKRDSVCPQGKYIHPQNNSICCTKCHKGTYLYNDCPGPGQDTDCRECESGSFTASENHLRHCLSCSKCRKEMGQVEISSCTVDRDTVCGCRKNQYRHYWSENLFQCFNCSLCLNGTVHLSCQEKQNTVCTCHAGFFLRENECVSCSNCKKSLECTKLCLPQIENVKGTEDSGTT
The assay is described as follows: SPR binding affinity to captured human TNFR1 ECD. An outline of the steps:
(§1)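 Insect-cell human receptor ECDs, enzymatically biotinylated, immobilized via streptavidin capture chip. Peptide binding and dissociation measured in RU in pH 7.4 HEPES buffer containing 2% DMSO; chip regenerated per analyte. Rate constants give affinity.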
Background: SPR reads the build-up and loss of mass on a sensor chip optically.

Assay [3] addresses T3, human TNFR2 ECD protein (Homo sapiens, UniProt P20333).
T3 construct: HRV 3C protease cleavage site (C); 6His (C, cleaved yes); made in house; host or cells: Sf21 insect cells (baculovirus), secreted
T3 sequence (P20333 23-257): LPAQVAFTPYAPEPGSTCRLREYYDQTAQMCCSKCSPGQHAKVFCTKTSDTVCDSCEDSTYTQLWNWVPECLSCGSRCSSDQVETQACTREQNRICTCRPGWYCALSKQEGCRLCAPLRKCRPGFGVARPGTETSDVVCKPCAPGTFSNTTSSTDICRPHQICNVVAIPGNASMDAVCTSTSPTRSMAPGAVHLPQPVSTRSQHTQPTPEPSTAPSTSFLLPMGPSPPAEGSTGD
The assay is described as follows: SPR off-target binding (selectivity) to human TNFR2 ECD. An outline of the steps: as §1

For assay [4], the target named is T4, TNFα-induced NF-κB signal transduction pathway (TNFR1 signaling) in THP-1 cells (Homo sapiens, UniProt P19438).
T4 sequence (P19438 30-455): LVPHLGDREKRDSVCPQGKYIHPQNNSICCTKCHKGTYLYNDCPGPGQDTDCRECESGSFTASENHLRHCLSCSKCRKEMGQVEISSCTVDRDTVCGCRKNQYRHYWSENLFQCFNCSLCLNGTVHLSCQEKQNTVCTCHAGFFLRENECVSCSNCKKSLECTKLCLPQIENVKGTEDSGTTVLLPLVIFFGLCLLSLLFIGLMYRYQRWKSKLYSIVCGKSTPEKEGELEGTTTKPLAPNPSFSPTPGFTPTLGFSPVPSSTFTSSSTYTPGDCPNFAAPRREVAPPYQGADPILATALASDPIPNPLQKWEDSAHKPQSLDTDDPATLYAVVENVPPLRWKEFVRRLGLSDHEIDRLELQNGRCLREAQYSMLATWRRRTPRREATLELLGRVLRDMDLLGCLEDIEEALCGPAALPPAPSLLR
Kind of assay: THP-1 Lucia NF-κB reporter cell assay, inhibition of TNFα-induced NF-κB signaling. Type of assay: cell-based. The following applies: THP-1 NF-κB Lucia reporter cells, 10 ng/mL TNFα, 16-18 h, secreted luciferase; read-out: THP-1 IC50. In a few lines: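 Macrocyclic peptides were preincubated 1 h at 37 °C with THP-1 NF-κB-Lucia reporter cells (20,000 cells/well) in antibiotic-free RPMI 1640/10% FBS, then stimulated with 10 ng/mL human TNFα overnight (16-18 h). Secreted luciferase in supernatant was read by luminescence; IC50 from 4-parameter logistic fits.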

Where two headings read alike, the source gives them in different places. Numbered stars: 1 amine (or outer) side, 2 acyl side, 3 side chain; on linkers, the order of the positions; unused ones are H or OH. Bridge positions count the residues as written; N and C are the ends. Square brackets hold non-standard residues; d marks the D form. Peptide text beside a SMILES is read from it. Trp(βS-Me,7-OMe) = COc1cccc2c([C@H](C)[C@H](N)C(=O)O)c[nH]c12; X34 = O=C([C@H](Cc1c[nH]c2c(Cl)c(F)ccc12)N[*:1])[*:2]; Ala(indazol-1-yl) = N[C@@H](Cn1ncc2ccccc21)C(=O)O; Trp(7-CN) = N#Cc1cccc2c(C[C@H](N)C(=O)O)c[nH]c12; Trp(7-Cl) = N[C@@H](Cc1c[nH]c2c(Cl)cccc12)C(=O)O; Phe(4-CONH2) = NC(=O)c1ccc(C[C@H](N)C(=O)O)cc1; Phe(4-COOH) = N[C@@H](Cc1ccc(C(=O)O)cc1)C(=O)O; 4Pal(3S-Me) = C[C@@H](c1ccncc1)[C@H](N)C(=O)O; Trp(1-Me) = Cn1cc(C[C@H](N)C(=O)O)c2ccccc21; Pip(5R-OH) = O=C(O)[C@@H]1CC[C@@H](O)CN1; X1 = O=C([C@@H]1CC[C@H](N[*:1])C1)[*:2]; Pip(4-aza) = O=C(O)[C@@H]1CNCCN1; hPhe = N[C@@H](CCc1ccccc1)C(=O)O; 4Pal = N[C@@H](Cc1ccncc1)C(=O)O; NMeE = CN[C@@H](CCC(=O)O)C(=O)O; dHyp = O=C(O)[C@H]1C[C@H](O)CN1; Ahp(2) = CCCCC[C@H](N)C(=O)O; hSer = N[C@@H](CCO)C(=O)O; αMeS = C[C@](N)(CO)C(=O)O; NMeA = CN[C@@H](C)C(=O)O; Nle = CCCC[C@H](N)C(=O)O; Sar = CNCC(=O)O

In the case of `CCCCC[C@@H]1NC(=O)[C@@H]2CC[C@@H](C2)NC(=O)[C@H]([C@@H](C)c2c[nH]c3c(OC)cccc23)NC(=O)CN(C)C(=O)[C@H](Cc2ccc(C(N)=O)cc2)NC(=O)[C@H](Cc2ccc(C(N)=O)cc2)NC(=O)[C@](C)(CO)NC(=O)[C@H](Cc2c[nH]c3c(C#N)cccc23)NC(=O)[C@H](Cc2ccc(C(=O)O)cc2)NC(=O)[C@H](CC(N)=O)NC(=O)[C@H]2C[C@H](O)CN2C(=O)[C@H](Cc2c[nH]c3ccccc23)NC(=O)[C@H](CC(N)=O)NC(=O)[C@H]([C@@H](C)c2ccncc2)NC1=O` [SEQ ID NO. 92] (cyclo([Ahp(2)][4Pal(3S-Me)]NW[dHyp]N[Phe(4-COOH)][Trp(7-CN)][αMeS][Phe(4-CONH2)][Phe(4-CONH2)][Sar][Trp(βS-Me,7-OMe)][X1])), the Kd in assay [1] is 0.24 nM; in assay [2], 0.05 nM; in assay [3], more than 1000 nM.
The corresponding values for `CCCCC[C@@H]1NC(=O)[C@@H]2CC[C@@H](C2)NC(=O)[C@H]([C@@H](C)c2c[nH]c3c(OC)cccc23)NC(=O)CN(C)C(=O)[C@H](Cc2ccc(C(N)=O)cc2)NC(=O)[C@H](Cc2ccc(C(=O)O)cc2)NC(=O)[C@](C)(CO)NC(=O)[C@H](Cc2c[nH]c3c(Cl)c(F)ccc23)NC(=O)[C@H](Cc2ccncc2)NC(=O)[C@H](CC(N)=O)NC(=O)[C@H]2C[C@H](O)CN2C(=O)[C@H](Cc2c[nH]c3ccccc23)NC(=O)[C@@H]2CNCCN2C(=O)[C@H](Cc2ccncc2)NC1=O` [SEQ ID NO. 112] (cyclo([4Pal][Pip(4-aza)]W[dHyp]N[4Pal][X34][αMeS][Phe(4-COOH)][Phe(4-CONH2)][Sar][Trp(βS-Me,7-OMe)][X1][Ahp(2)])) are 0.24 nM, 0.03 nM and more than 1000 nM.
`CCCC[C@@H]1NC(=O)CSC[C@@H](C(N)=O)NC(=O)[C@H]([C@@H](C)c2c[nH]c3c(OC)cccc23)NC(=O)CN(C)C(=O)[C@H](Cc2ccc(O)cc2)NC(=O)[C@H](Cc2ccc(C(N)=O)cc2)NC(=O)[C@](C)(CO)NC(=O)[C@H](Cc2c[nH]c3c(Cl)cccc23)NC(=O)[C@H](Cc2ccncc2)NC(=O)[C@H](CC(N)=O)NC(=O)[C@H](CCC(=O)O)N(C)C(=O)[C@H](Cc2cn(C)c3ccccc23)NC(=O)[C@@H]2CC[C@@H](O)CN2C(=O)[C@H](Cc2ccncc2)NC1=O` [SEQ ID NO. 151] ({CH2CO}-[Nle][4Pal][Pip(5R-OH)][Trp(1-Me)][NMeE]N[4Pal][Trp(7-Cl)][αMeS][Phe(4-CONH2)]Y[Sar][Trp(βS-Me,7-OMe)]C-NH2; thioether N-14): in assay [1], the IC50 amounted to 0.29 nM. Further, the results for the Kd in assay [1], in assay [2] and in assay [3] were 0.11 nM, 0.04 nM and more than 1000 nM, respectively.
In the case of `COCC[C@@H]1NC(=O)[C@@H]2CC[C@@H](C2)NC(=O)[C@H]([C@@H](C)c2c[nH]c3c(OC)cccc23)NC(=O)CN(C)C(=O)[C@H](Cc2ccc(C(N)=O)cc2)NC(=O)[C@H](Cc2ccc(C(N)=O)cc2)NC(=O)[C@](C)(CO)NC(=O)[C@H](Cc2c[nH]c3c(C#N)cccc23)NC(=O)[C@H](Cc2ccc(C(=O)O)cc2)NC(=O)[C@H](CC(N)=O)NC(=O)[C@H]2C[C@H](O)CN2C(=O)[C@H](Cc2c[nH]c3ccccc23)NC(=O)[C@@H]2CC[C@@H](O)CN2C(=O)[C@H](Cc2ccncc2)NC1=O` [SEQ ID NO. 194] (cyclo([4Pal][Pip(5R-OH)]W[dHyp]N[Phe(4-COOH)][Trp(7-CN)][αMeS][Phe(4-CONH2)][Phe(4-CONH2)][Sar][Trp(βS-Me,7-OMe)][X1][hSer](Me))), the Kd in assay [1] is 0.05 nM; in assay [2], 0.04 nM; in assay [3], more than 1000 nM.
For the compound `C[C@H]1C(=O)N[C@@H](CC(N)=O)C(=O)N[C@@H](Cc2ccncc2)C(=O)N[C@@H](Cc2c[nH]c3ccccc23)C(=O)N[C@@](C)(CO)C(=O)N[C@@H](Cc2ccc(C(=O)O)cc2)C(=O)N[C@@H](Cc2ccc(O)cc2)C(=O)N(C)CC(=O)N[C@@H](Cc2c[nH]c3ccccc23)C(=O)N[C@H](C(N)=O)CSCC(=O)N[C@@H](CCc2ccccc2)C(=O)N[C@@H](Cc2ccc(O)cc2)C(=O)N[C@@H](CO)C(=O)N[C@@H](Cn2ncc3ccccc32)C(=O)N1C` [SEQ ID NO. 265] ({CH2CO}-[hPhe]YS[Ala(indazol-1-yl)][NMeA]N[4Pal]W[αMeS][Phe(4-COOH)]Y[Sar]WC-NH2; thioether N-14), the Kd in assay [2] (biotinylated human TNFR1 ECD on streptavidin chip, from kon and koff, read-out: SPR hTNFR1 KD) is 1 nM; in assay [3] (biotinylated human TNFR2 ECD on streptavidin chip, read-out: SPR hTNFR2 KD) it was more than 1000 nM. Further, the half-inhibitory concentration (IC50) in assay [4] turned out to be 4.9 nM.

What is called Kd is the constant that tells how readily two partners part at equilibrium. One may read the IC50 as the concentration at which inhibition is half-maximal.
